Measurements: US8765907B2, “Production and use of antitumoral antibiotic and insecticidal cyclodepsipeptides” (Geomar Helmholtz-Zentrum fur Ozeanforschung Kiel, priority 2009, dated 2014)

How the values were obtained:
[1] = test system: MAXF401NL (breast cancer cell line); assay: Anti-proliferative effect (propidium iodide fluorescence assay), MAXF401NL; assay type: cell-based, human
Method: (§1) Xenobovide A, B and C inhibited the proliferation of all six tested human tumour cell lines: GXF251L (gastric tumour cell line), LXF529L (lung tumour cell line), MAXF401NL (breast cancer cell line), MEXF462NL (melanoma cell line), PAXF1657L (pancreas tumour cell line) and RXF486L (kidney tumour cell line).
(§2) The anti-proliferative effect was determined according to Dengler et al. (1995, Development of a propidium iodide fluorescence assay for proliferation and cytoxicity assay. Anti-Cancer Drugs 6:522-532).

[2] = test system: GXF251L (gastric tumour cell line); assay: Anti-proliferative effect (propidium iodide fluorescence assay), GXF251L; assay type: cell-based, human
Method: as §1, §2

[3] = test system: LXF529L (lung tumour cell line); assay: Anti-proliferative effect (propidium iodide fluorescence assay), LXF529L; assay type: cell-based, human
Method: as §1, §2

[4] = test system: MEXF462NL (melanoma cell line); assay: Anti-proliferative effect (propidium iodide fluorescence assay), MEXF462NL; assay type: cell-based, human
Method: as §1, §2

acetylcholine esterase = settings: read-out: IC50-value, acetylcholine esterase
Method: Testing was performed according to Birman (1985, Determination of acetylcholinesterase activity by a new chemiluminescence assay with natural substrate. Biochemical Journal. 225:825-828).

larvae of the wax moth = assay: Insecticidal effect, oral toxicity in feed; assay type: in vivo; settings: added to feed, 1 mg substance/mL solution, five larvae per box, 35° C., six days, four repeated experiments
Method: The insecticidal effect was tested against the larvae of the wax moth, a pathogen in beekeeping. […] To test the oral toxicity, 1 mg substance/mL was dissolved in a 50% aqueous ethanol solution. Five larvae each were transferred into a plastic box (2 cm in diameter) and fed with 1 g food mixture (0.8 mL substance solution, 0.2 mL glycerine (86%) and 1 g wheat bran). The control group was fed with 1 g food mixture without addition of substance (0.4 mL aq. dest., 0.4 mL ethanol, 0.2 mL glycerine (86%) and 1 g wheat bran). The incubation of the larvae was at 35° C. for six days. Subsequently, the dead larvae were counted.

[5] = test system: RXF486L (kidney tumour cell line); assay: Anti-proliferative effect (propidium iodide fluorescence assay), RXF486L; assay type: cell-based, human
Method: as §1, §2

[6] = target: phosphodiesterase (PDE-4B2) (Homo sapiens, UniProt Q07343); assay: Inhibition of phosphodiesterase PDE-4B2; assay type: biochemical; settings: 163 μg/mL
Sequence of phosphodiesterase (PDE-4B2) (Q07343 1-564 isoform Q07343-2, species assumed): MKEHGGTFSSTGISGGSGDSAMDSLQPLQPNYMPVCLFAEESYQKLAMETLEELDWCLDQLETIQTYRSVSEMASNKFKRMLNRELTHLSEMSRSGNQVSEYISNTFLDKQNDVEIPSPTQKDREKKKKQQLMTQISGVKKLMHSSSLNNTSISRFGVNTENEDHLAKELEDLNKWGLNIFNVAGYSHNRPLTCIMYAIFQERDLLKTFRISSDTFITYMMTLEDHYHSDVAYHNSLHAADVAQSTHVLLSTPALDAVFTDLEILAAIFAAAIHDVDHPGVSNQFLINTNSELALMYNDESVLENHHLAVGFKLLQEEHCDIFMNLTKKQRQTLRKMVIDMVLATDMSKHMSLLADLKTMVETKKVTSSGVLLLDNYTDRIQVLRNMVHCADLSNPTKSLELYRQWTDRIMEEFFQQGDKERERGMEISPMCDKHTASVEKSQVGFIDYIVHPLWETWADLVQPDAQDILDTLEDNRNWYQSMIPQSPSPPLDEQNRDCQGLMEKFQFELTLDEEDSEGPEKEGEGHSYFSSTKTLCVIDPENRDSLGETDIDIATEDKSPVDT
Method: (§3) Xenobovide A in a concentration of 163 μg/mL inhibits the phosphodiesterase (PDE-4B2) by 46%. This enzyme test was carried out according to Hohmann et al. (2009, Caboxamycin, a new antibiotic of the benzoxazole family produced by the deep-sea strain Streptomyces sp. NTK 937. The Journal of Antibiotics. 62:99-104).

[7] = test system: PAXF1657L (pancreas tumour cell line); assay: Anti-proliferative effect (propidium iodide fluorescence assay), PAXF1657L; assay type: cell-based, human
Method: as §1, §2

[8] = target: T1, Protein Tyrosine Phosphatase 1B (PTP1B) (Homo sapiens, UniProt P18031); assay: Inhibition of protein tyrosine phosphatase 1B; assay type: biochemical; settings: 26.1 μMol
T1 sequence (P18031 1-435): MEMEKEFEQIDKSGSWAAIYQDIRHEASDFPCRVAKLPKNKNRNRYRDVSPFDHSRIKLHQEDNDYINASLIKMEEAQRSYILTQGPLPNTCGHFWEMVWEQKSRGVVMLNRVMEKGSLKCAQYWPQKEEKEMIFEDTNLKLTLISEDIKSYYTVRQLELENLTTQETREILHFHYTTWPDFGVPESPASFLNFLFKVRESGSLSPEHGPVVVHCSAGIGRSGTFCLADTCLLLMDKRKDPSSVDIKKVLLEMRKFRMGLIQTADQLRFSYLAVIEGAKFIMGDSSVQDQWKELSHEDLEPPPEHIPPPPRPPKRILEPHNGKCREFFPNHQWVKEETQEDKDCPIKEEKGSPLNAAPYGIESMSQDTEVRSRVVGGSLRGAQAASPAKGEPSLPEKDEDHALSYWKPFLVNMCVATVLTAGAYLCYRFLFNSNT
Method: as §3, with “26.1 μMol” for “163 μg/mL”, “protein tyrosine phosphotase 1B (PTB1B)” for “phosphodiesterase (PDE-4B2)”, “59%.” for “46%.”

[9] = target: glycogen synthase kinase 3beta (Homo sapiens, UniProt P49841); assay: Inhibition of glycogen synthase kinase 3beta (Kinase-Glo luminescent assay); assay type: biochemical
Sequence of glycogen synthase kinase 3beta (P49841 whole entry, species assumed): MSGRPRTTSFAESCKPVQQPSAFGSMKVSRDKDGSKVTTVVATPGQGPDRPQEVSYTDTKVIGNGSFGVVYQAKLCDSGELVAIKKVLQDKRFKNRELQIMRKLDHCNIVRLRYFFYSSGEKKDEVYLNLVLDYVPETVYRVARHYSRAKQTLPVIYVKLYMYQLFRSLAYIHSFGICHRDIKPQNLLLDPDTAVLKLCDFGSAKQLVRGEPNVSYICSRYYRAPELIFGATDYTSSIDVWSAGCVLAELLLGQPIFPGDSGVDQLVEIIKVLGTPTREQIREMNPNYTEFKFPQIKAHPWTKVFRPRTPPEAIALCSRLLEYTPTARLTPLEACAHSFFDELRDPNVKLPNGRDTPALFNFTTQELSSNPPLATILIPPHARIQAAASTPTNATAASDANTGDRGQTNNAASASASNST
Description: Xenobovide A and B, in a concentration of 16.3 μMol and 15.6 μMol, respectively, inhibited the glycogen synthase kinase 3beta by 21% and 43%, respectively. The performance was according to Baki et al. (2007, A high throughput luminescent assay for glycogen synthase kinase-3beta inhibitors. Assay and Drug Development Technologies. 5:75-83) using the kinase-Glo Luminescent Kinase Assay Kit of the company Promega.

Row | SMILES | IC50 [1] | IC50 [2] | IC50 [3] | IC50 [4] | IC50 (acetylcholine esterase) | insecticidal effect (dead larvae) (larvae of the wax moth) | IC50 [5] | inhibition at 163 µg/mL [6] | IC50 [7] | inhibition of protein tyrosine phosphatase 1B [8] | inhibition of glycogen synthase kinase 3beta ([9]; 16.3 μMol) | inhibition of glycogen synthase kinase 3beta ([9]; 15.6 μMol)
1 | CCCCC(C)CC(=O)N[C@@H]1C(=O)N[C@@H](C)C(=O)NC(CC(C)C)C(=O)NC(CC(C)C)C(=O)NC(CC(C)C)C(=O)NC(CC(C)C)C(=O)N[C@@H](C)C(=O)O[C@@H]1C (single isomer, unassigned) [Xenobovide A] | 2.1 µM | 1.6 µM | 8.5 µM | 2.7 µM | 53.6 µM | death of all larvae | 12 µM | 46% | 3.5 µM | 59% | 21% | –
2 | CCCCC(C)CC(=O)N[C@@H]1C(=O)N[C@@H](C)C(=O)NC(CC(C)C)C(=O)NC(CC(C)C)C(=O)NC(CC(C)C)C(=O)NC(CC(C)C)C(=O)N[C@@H](C)C(=O)O[C@@H]1C (single isomer, unassigned) [Xenobovide B] | 3.2 µM | 2.5 µM | 9.7 µM | 5.3 µM | – | death of all larvae | 14.5 µM | – | 2.9 µM | – | – | 43%
3 | CCCCC(C)CC(=O)N[C@@H]1C(=O)N[C@@H](C)C(=O)NC(CC(C)C)C(=O)NC(CC(C)C)C(=O)NC(CC(C)C)C(=O)NC(CC(C)C)C(=O)N[C@@H](C)C(=O)O[C@@H]1C (single isomer, unassigned) [Xenobovide C] | 8.5 µM | 3 µM | 7.8 µM | 9.4 µM | – | death of all larvae | 7.6 µM | – | 10.3 µM | – | – | –
